From publication PMC4380750 (Bioorganic & medicinal chemistry, 2015)

How the values were obtained:
KOR [1] = conditions: electrically stimulated guinea pig ileal longitudinal muscle; cited from earlier work
KOR [2] = conditions: binding affinity; cited from earlier work
MOR [3] = molecular target: T1, MOR (Mus musculus, UniProt P42866); assay: biochemical; conditions: for Emax: read-out: MOR [35S]GTPγS Binding %Emax of DAMGO; for less potent than naltrexone in the MOR [35S]GTPγS binding assay: EC50 compared with naltrexone
DOR [4] = molecular target: T2, DOR (Mus musculus, UniProt P32300); assay: DOR [35S]GTPγS binding functional assay; assay type: biochemical; conditions: vs naltrexone
hMOR = hMOR (Homo sapiens, UniProt P35372); assay: Ca2+ flux assay in Gαqi5 transfected hMOR-CHO cells; assay type: cell-based; conditions: for agonism, increase of intracellular Ca2+ level: agonism study, compared to DAMGO
MOR [5] = molecular target: T1, MOR; assay type: binding
KOR [6] = molecular target: KOR (Mus musculus, UniProt P33534); assay: KOR [35S]GTPγS binding functional assay; assay type: biochemical
Swiss-Webster mice [7] = assay: Warm-water tail immersion assay, agonism study; assay type: in vivo, mouse
DOR [8] = molecular target: T2, DOR; assay: Radioligand competition binding assay, [3H]naltrindole, mDOR-CHO cell membranes; conditions: ratio of Ki values, MOR vs DOR
Swiss-Webster mice [9] = assay: Opioid withdrawal assays in chronic morphine-pelleted mice; assay type: in vivo, mouse
[10] = 1 mg/kg s.c., morphine-pelleted mice, counted over 20 min

T1 sequence (P42866 whole entry): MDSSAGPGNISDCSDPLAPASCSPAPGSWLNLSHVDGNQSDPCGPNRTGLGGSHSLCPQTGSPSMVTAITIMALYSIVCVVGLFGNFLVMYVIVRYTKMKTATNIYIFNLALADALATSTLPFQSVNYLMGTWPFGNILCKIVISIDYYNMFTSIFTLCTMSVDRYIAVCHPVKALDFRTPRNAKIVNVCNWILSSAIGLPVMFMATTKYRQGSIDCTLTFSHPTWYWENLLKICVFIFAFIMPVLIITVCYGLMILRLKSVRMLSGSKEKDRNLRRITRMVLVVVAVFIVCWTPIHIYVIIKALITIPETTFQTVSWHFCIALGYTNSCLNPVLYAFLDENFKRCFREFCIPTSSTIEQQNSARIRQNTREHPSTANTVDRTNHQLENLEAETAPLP
T2 sequence (P32300 whole entry): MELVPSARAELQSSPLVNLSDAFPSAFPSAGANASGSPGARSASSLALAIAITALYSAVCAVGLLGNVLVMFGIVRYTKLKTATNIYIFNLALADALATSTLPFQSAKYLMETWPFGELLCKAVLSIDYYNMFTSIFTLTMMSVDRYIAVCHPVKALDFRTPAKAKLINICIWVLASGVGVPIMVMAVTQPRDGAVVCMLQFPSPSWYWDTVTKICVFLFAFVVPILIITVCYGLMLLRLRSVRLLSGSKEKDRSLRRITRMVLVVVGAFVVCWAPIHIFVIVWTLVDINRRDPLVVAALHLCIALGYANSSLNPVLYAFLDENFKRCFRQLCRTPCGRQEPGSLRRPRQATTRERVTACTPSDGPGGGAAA
Sequence of KOR (Mus musculus, UniProt P33534) (P33534 whole entry): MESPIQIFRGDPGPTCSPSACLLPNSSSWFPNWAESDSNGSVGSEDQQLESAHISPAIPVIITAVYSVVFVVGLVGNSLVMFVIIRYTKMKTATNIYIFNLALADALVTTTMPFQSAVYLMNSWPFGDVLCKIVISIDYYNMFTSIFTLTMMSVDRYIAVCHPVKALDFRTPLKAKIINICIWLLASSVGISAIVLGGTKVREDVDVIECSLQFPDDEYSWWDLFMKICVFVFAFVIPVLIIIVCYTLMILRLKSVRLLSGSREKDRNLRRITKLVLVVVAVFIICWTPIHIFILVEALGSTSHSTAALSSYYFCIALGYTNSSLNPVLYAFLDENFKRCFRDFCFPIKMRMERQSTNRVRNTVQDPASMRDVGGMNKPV
Sequence of hMOR (P35372 whole entry): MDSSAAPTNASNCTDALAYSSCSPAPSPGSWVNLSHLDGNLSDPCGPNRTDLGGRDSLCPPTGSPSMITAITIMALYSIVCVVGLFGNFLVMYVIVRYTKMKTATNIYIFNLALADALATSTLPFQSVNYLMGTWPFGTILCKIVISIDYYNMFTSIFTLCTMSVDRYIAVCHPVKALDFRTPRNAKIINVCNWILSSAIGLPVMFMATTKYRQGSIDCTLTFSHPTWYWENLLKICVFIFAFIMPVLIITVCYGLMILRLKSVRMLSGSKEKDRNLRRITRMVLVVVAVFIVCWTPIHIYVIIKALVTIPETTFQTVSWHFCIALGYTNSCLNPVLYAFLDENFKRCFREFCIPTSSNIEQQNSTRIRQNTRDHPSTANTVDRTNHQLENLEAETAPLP

NC(N)=Nc1ccc2[nH]c3c(c2c1)C[C@@]1(O)[C@H]2Cc4ccc(O)c5c4[C@@]1(CCN2CC1CC1)[C@H]3O5 [5’-GNTI, 5’-guanidinonaltrindole]
functional activity at KOR (KOR [1]): KOR antagonist | 5’-GNTI more potent than 6’-GNTI at the KOR (KOR [2]): 8 fold

NC(N)=Nc1ccc2c3c([nH]c2c1)[C@@H]1Oc2c(O)ccc4c2[C@@]12CCN(CC1CC1)[C@H](C4)[C@]2(O)C3 [6’-GNTI]
functional activity at KOR (KOR [1]): KOR full agonist

O=C(Cc1cc2ccccc2cn1)N[C@H]1CC[C@@]2(O)[C@H]3Cc4ccc(O)c5c4[C@@]2(CCN3CC2CC2)[C@H]1O5 [Compound 1, 17-Cyclopropylmethyl-3,14β-dihydroxy-4,5α-epoxy-6α-[2-(isoquinolin-3-yl)acetamido)morphinan]
Emax (MOR [3]): 18.6 ± 1.1%

O=C(CCc1cc2ccccc2cn1)N[C@H]1CC[C@@]2(O)[C@H]3Cc4ccc(O)c5c4[C@@]2(CCN3CC2CC2)[C@H]1O5 [Compound 2, 17-Cyclopropylmethyl-3,14β-dihydroxy-4,5α-epoxy-6α-[3-(isoquinolin-3-yl)propanamido)morphinan]
Emax (MOR [3]): 27.4 ± 0.35%

O=C(CNC(=O)c1cc2ccccc2cn1)N[C@H]1CC[C@@]2(O)[C@H]3Cc4ccc(O)c5c4[C@@]2(CCN3CC2CC2)[C@H]1O5 [Compound 3, 17-Cyclopropylmethyl-3,14β-dihydroxy-4,5α-epoxy-6α-[2-(isoquinoline-3-carboxamido)acetamido}morphinan]
Emax (MOR [3]): < 15%

COc1c(C(=O)N[C@H]2CC[C@@]3(O)[C@H]4Cc5ccc(O)c6c5[C@@]3(CCN4CC3CC3)[C@H]2O6)nc(Cl)c2ccccc12 [Compound 4, 17-Cyclopropylmethyl-3,14β-dihydroxy-4,5α-epoxy-6α-(1-chloro-4-methoxyisoquinoline-3-carboxamido)morphinan]
DOR [35S]GTPγS potency, less potent compared to naltrexone (DOR [4]): 7- to 25 fold | difference between the potencies of 4 and morphine in the MOR [35S]GTPγS binding assay (MOR [3]): ~70 fold | agonism, increase of intracellular Ca2+ level (hMOR): did not show any significant agonist activity | higher potency of 4 to 11 in Ca2+ flux antagonism study (hMOR; vs compound 11): 100 fold | 4 more potent than 11 in the radioligand competition binding assay (MOR [5]): about 10 fold | Emax (KOR [6]; read-out: KOR [35S]GTPγS Binding % Emax of U50,488): 7.1 ± 0.5% | % MPE, intrinsic antinociceptive effect (Swiss-Webster mice [7]; 10 mg/kg s.c., 20 min after injection, mice, 56 °C): full agonist | difference between the potencies of 4 and morphine in the tail immersion assay (Swiss-Webster mice [7]; vs morphine): ~9 fold

O=C(N[C@H]1CC[C@@]2(O)[C@H]3Cc4ccc(O)c5c4[C@@]2(CCN3CC2CC2)[C@H]1O5)c1nc(Cl)c2ccccc2c1O [Compound 5, 17-Cyclopropylmethyl-3,14β-dihydroxy-4,5α-epoxy-6α-(1-chloro-4-hydroxyisoquinoline-3-carboxamido)morphinan]
Emax (MOR [3]): 19.8 ± 0.8% | Selectivity δ/µ (DOR [8]): > 15

O=C(N[C@H]1CC[C@@]2(O)[C@H]3Cc4ccc(O)c5c4[C@@]2(CCN3CC2CC2)[C@H]1O5)c1ncc2ccccc2c1O [Compound 6, 17-Cyclopropylmethyl-3,14β-dihydroxy-4,5α-epoxy-6α-(4-hydroxyisoquinoline-3-carboxamido)morphinan]
Emax (MOR [3]): 20.5 ± 0.9%

O=C(N[C@H]1CC[C@@]2(O)[C@H]3Cc4ccc(O)c5c4[C@@]2(CCN3CC2CC2)[C@H]1O5)c1ncc2ccccc2n1 [Compound 7, 17-Cyclopropylmethyl-3,14β-dihydroxy-4,5α-epoxy-6α-(4-quinazoline-2-carboxamido)morphinan]
Emax (MOR [3]): 21.6 ± 0.8%

N#Cc1nc(C(=O)N[C@H]2CC[C@@]3(O)[C@H]4Cc5ccc(O)c6c5[C@@]3(CCN4CC3CC3)[C@H]2O6)cc2ccccc12 [Compound 9, 17-Cyclopropylmethyl-3,14β-dihydroxy-4,5α-epoxy-6α-(1-cyanoisoquinoline-3-carboxamido)morphinan]
Emax (MOR [3]): 37.5 ± 0.7%

Cc1nc(C(=O)N[C@H]2CC[C@@]3(O)[C@H]4Cc5ccc(O)c6c5[C@@]3(CCN4CC3CC3)[C@H]2O6)cc2ccccc12 [Compound 10, 17-Cyclopropylmethyl-3,14β-dihydroxy-4,5α-epoxy-6α-(1-methylisoquinolin-3-carboxamido)morphinan]
Emax (MOR [3]): 22.2 ± 0.4%

O=C(N[C@H]1CC[C@@]2(O)[C@H]3Cc4ccc(O)c5c4[C@@]2(CCN3CC2CC2)[C@H]1O5)c1cc2cc([N+](=O)[O-])ccc2cn1 [Compound 11, 17-Cyclopropylmethyl-3,14β-dihydroxy-4,5α-epoxy-6α-(6-nitroisoquinoline-3-carboxamido)morphinan]
DOR [35S]GTPγS potency, less potent compared to naltrexone (DOR [4]): 7- to 25 fold | less potent than naltrexone in the MOR [35S]GTPγS binding assay (MOR [3]): ≥ 200 fold | agonism, increase of intracellular Ca2+ level (hMOR): no apparent agonism | withdrawal symptoms in placebo-pelleted mice (Swiss-Webster mice [9]; 30 mg/kg s.c., placebo-pelleted mice): did not induce any significant withdrawal symptoms | escape jumps in morphine-pelleted mice, dose dependence (Swiss-Webster mice [9]; s.c., doses up to 100 mg/kg, plateau at 100 mg/kg): did not precipitate significant jumps in morphine-pelleted mice until 30 mg/kg | wet-dog shakes in morphine-pelleted mice compared to naltrexone (Swiss-Webster mice [9]; s.c., doses up to 100 mg/kg, vs naltrexone 1 mg/kg): significantly less wet-dog shakes | KOR [35S]GTPγS potency, lower than that of NAQ (KOR [6]; vs NAQ): ~6 fold | KOR [35S]GTPγS potency, less potent than naltrexone (KOR [6]; vs naltrexone): ~80 fold

O=C(N[C@H]1CC[C@@]2(O)[C@H]3Cc4ccc(O)c5c4[C@@]2(CCN3CC2CC2)[C@H]1O5)c1cc2ccc([N+](=O)[O-])cc2cn1 [Compound 12, 17-Cyclopropylmethyl-3,14β-dihydroxy-4,5α-epoxy-6α-(7-nitroisoquinoline-3-carboxamido)morphinan]
less potent than naltrexone in the MOR [35S]GTPγS binding assay (MOR [3]): ≥ 200 fold

CN(C)c1ccc2cc(C(=O)N[C@H]3CC[C@@]4(O)[C@H]5Cc6ccc(O)c7c6[C@@]4(CCN5CC4CC4)[C@H]3O7)ncc2c1 [Compound 13, 17-Cyclopropylmethyl-3,14β-dihydroxy-4,5α-epoxy-6α-(7-dimethylaminoisoquinoline-3-carboxamido)morphinan]
Selectivity δ/µ (DOR [8]): > 15

COc1cc2cnc(C(=O)N[C@H]3CC[C@@]4(O)[C@H]5Cc6ccc(O)c7c6[C@@]4(CCN5CC4CC4)[C@H]3O7)cc2cc1OC [Compound 14, 17-Cyclopropylmethyl-3,14β-dihydroxy-4,5α-epoxy-6α-(6,7-dimethoxyisoquinoline-3-carboxamido)morphinan]
less potent than naltrexone in the MOR [35S]GTPγS binding assay (MOR [3]): ≥ 200 fold

CN1Cc2ccccc2C[C@H]1C(=O)N[C@H]1CC[C@@]2(O)[C@H]3Cc4ccc(O)c5c4[C@@]2(CCN3CC2CC2)[C@H]1O5 [Compound 15, 17-Cyclopropylmethyl-3,14β-dihydroxy-4,5α-epoxy-6α-[(S)-(2-methyl-1,2,3,4-tetrahydroisoquinoline-3-carboxamido)]morphinan]
Emax (MOR [3]): 24.8 ± 1.3%

O=C(N[C@H]1CC[C@@]2(O)[C@H]3Cc4ccc(O)c5c4[C@@]2(CCN3CC2CC2)[C@H]1O5)c1cc2ccccc2cn1 [NAQ, 17-cyclopropylmethyl-3,14β-dihydroxy-4,5α-epoxy-6α-(isoquinoline-3′-carboxamido)morphinan, reference compound]
DOR [35S]GTPγS potency, less potent compared to naltrexone (DOR [4]): 7- to 25 fold

O=C1CC[C@@]2(O)[C@H]3Cc4ccc(O)c5c4[C@@]2(CCN3CC2CC2)[C@H]1O5 [NTX, naltrexone, reference compound]
escape jumps (Swiss-Webster mice [9]; [10]): 30.0 ± 12.1 times | wet-dog shakes (Swiss-Webster mice [9]; [10]): 14.8 ± 2.2 times
